Measured values published in PubChem BioAssay (NCI).
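All cell lines were grown in 96-well plates and treated with compound for 48 hours. TGI: total growth inhibition.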

How the values were obtained:
Experiment in all cases: inhibition of tumour cell growth, NCI panel, 48 h
NCI-H23 lung = tested on: NCI-H23 lung
ACHN renal = tested on: ACHN renal
HL-60(TB) leukemia = tested on: HL-60(TB) leukemia
M19-MEL melanoma = tested on: M19-MEL melanoma
HCT-116 colon = tested on: HCT-116 colon
SF-295 CNS = tested on: SF-295 CNS
OVCAR-4 ovarian = tested on: OVCAR-4 ovarian
HOP-62 NSCLC = tested on: HOP-62 NSCLC
RXF-631 renal = tested on: RXF-631 renal
786-0 renal = tested on: 786-0 renal
SW-620 colon = tested on: SW-620 colon
NCI-H522 lung = tested on: NCI-H522 lung
DMS 273 small cell lung = tested on: DMS 273 small cell lung
SF-268 CNS = tested on: SF-268 CNS
DMS 114 small cell lung = tested on: DMS 114 small cell lung
RXF 393 renal = tested on: RXF 393 renal
SR leukemia = tested on: SR leukemia
HT29 colon = tested on: HT29 colon
RPMI-8226 leukemia = tested on: RPMI-8226 leukemia
M14 melanoma = tested on: M14 melanoma
SNB-19 CNS = tested on: SNB-19 CNS
UACC-62 melanoma = tested on: UACC-62 melanoma
KM12 colon = tested on: KM12 colon
NCI-H226 lung = tested on: NCI-H226 lung
KM20L2 colon = tested on: KM20L2 colon
UACC-257 melanoma = tested on: UACC-257 melanoma
HCC-2998 colon = tested on: HCC-2998 colon
SN12C renal = tested on: SN12C renal
CCRF-CEM leukemia = tested on: CCRF-CEM leukemia
SNB-75 CNS = tested on: SNB-75 CNS
COLO 205 colon = tested on: COLO 205 colon
MALME-3M melanoma = tested on: MALME-3M melanoma
K-562 leukemia = tested on: K-562 leukemia
LOX IMVI melanoma = tested on: LOX IMVI melanoma
SK-MEL-2 melanoma = tested on: SK-MEL-2 melanoma
XF 498 CNS = tested on: XF 498 CNS
U251 CNS = tested on: U251 CNS
DLD-1 colon = tested on: DLD-1 colon
TK-10 renal = tested on: TK-10 renal
SK-MEL-5 melanoma = tested on: SK-MEL-5 melanoma
CAKI-1 renal = tested on: CAKI-1 renal
UO-31 renal = tested on: UO-31 renal
A498 renal = tested on: A498 renal
SF-539 CNS = tested on: SF-539 CNS
OVCAR-8 ovarian = tested on: OVCAR-8 ovarian
EKVX NSCLC = tested on: EKVX NSCLC
IGROV1 ovarian = tested on: IGROV1 ovarian
MOLT-4 leukemia = tested on: MOLT-4 leukemia
A549 NSCLC = tested on: A549 NSCLC
LXFL 529 NSCLC = tested on: LXFL 529 NSCLC
OVCAR-3 ovarian = tested on: OVCAR-3 ovarian
OVCAR-5 ovarian = tested on: OVCAR-5 ovarian
HOP-92 NSCLC = tested on: HOP-92 NSCLC
SK-OV-3 ovarian = tested on: SK-OV-3 ovarian
NCI-H460 lung = tested on: NCI-H460 lung
HCT-15 colon = tested on: HCT-15 colon
HOP-18 NSCLC = tested on: HOP-18 NSCLC
SNB-78 CNS = tested on: SNB-78 CNS
SK-MEL-28 melanoma = tested on: SK-MEL-28 melanoma

Measured: TGI

COc1ccc(S(=O)(=O)NNS(C)(=O)=O)cc1
not listed: OVCAR-3 ovarian | OVCAR-5 ovarian | HOP-92 NSCLC | SK-OV-3 ovarian | NCI-H460 lung | HCT-15 colon | HOP-18 NSCLC | SNB-78 CNS | SK-MEL-28 melanoma
> 100 µM: all other assays above

CCOC(=O)NC(=O)c1cn(CCCO)c(=O)[nH]c1=O
not listed: HL-60(TB) leukemia | NCI-H522 lung | RXF 393 renal | SR leukemia | LXFL 529 NSCLC
> 100 µM: all other assays above
